Measurements published in ChEMBL document CHEMBL1201862, “PubChem BioAssay data set” (2004).
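Tested at 5 concentrations; 48 h exposure; 96-well plates; endpoints linearly interpolated, else capped at highest concentration. Here, GI50 denotes the concentration required for 50% inhibition of growth.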 Activity calls are given as the source filed them. No stated cut-off is given here; in the data, active = GI50 up to about 1.1 µM and inactive = higher.

Key:
Test in all cases: inhibition of tumour cell growth, NCI panel, 48 h
COLO 205 = test system: COLO 205
SN12C = test system: SN12C
NCI-H23 = test system: NCI-H23
SK-MEL-5 = test system: SK-MEL-5
HT-29 = test system: HT-29
SNB-75 = test system: SNB-75
SW-620 = test system: SW-620
MOLT-4 = test system: MOLT-4
CCRF-CEM = test system: CCRF-CEM
EKVX = test system: EKVX
HCT-15 = test system: HCT-15
A549 = test system: A549
786-0 = test system: 786-0
Malme-3M = test system: Malme-3M
OVCAR-3 = test system: OVCAR-3
SK-OV-3 = test system: SK-OV-3
OVCAR-8 = test system: OVCAR-8
SF-295 = test system: SF-295
HOP-92 = test system: HOP-92
XF498 = test system: XF498
KM-20L2 = test system: KM-20L2
SF-268 = test system: SF-268
SK-MEL-28 = test system: SK-MEL-28
NCI-H226 = test system: NCI-H226
SK-MEL-2 = test system: SK-MEL-2
NCI-H460 = test system: NCI-H460
RXF 631 = test system: RXF 631
HL-60 = test system: HL-60
UACC-257 = test system: UACC-257
HCC 2998 = test system: HCC 2998
ACHN = test system: ACHN
DMS-114 = test system: DMS-114
SNB-19 = test system: SNB-19
RPMI-8226 = test system: RPMI-8226
LOX IMVI = test system: LOX IMVI
CAKI-1 = test system: CAKI-1
K562 = test system: K562
KM12 = test system: KM12
OVCAR-4 = test system: OVCAR-4
U-251 = test system: U-251
DMS-273 = test system: DMS-273
HOP-18 = test system: HOP-18
DLD-1 = test system: DLD-1
HOP-62 = test system: HOP-62
RXF 393 = test system: RXF 393
UO-31 = test system: UO-31
M14 = test system: M14
NCI-H522 = test system: NCI-H522
LXFL 529 = test system: LXFL 529
OVCAR-5 = test system: OVCAR-5
SNB-78 = test system: SNB-78
TK-10 = test system: TK-10
M19-MEL = test system: M19-MEL
SF-539 = test system: SF-539
A498 = test system: A498
IGROV-1 = test system: IGROV-1
UACC-62 = test system: UACC-62
HCT-116 = test system: HCT-116

`O=C(CC1(O)C(=O)Nc2c(Cl)ccc(Cl)c21)c1ccc(F)cc1` (centres undefined) was tested, and the GI50 (COLO 205) was 96.6 µM (inactive), the GI50 (SN12C) was 60.1 µM (inactive) and the GI50 (NCI-H23) was 23.2 µM (inactive). For the same molecule, the GI50 (SK-MEL-5) was 17.9 µM (inactive), the GI50 (HT-29) was 40.4 µM (inactive) and the GI50 (SNB-75) was 24.1 µM (inactive). For the same molecule, the GI50 (SW-620) was 34.1 µM (inactive), the GI50 (MOLT-4) was 25 µM (inactive) and the GI50 (CCRF-CEM) was 25.9 µM (inactive). For the same molecule, the GI50 (EKVX) was 44.4 µM (inactive), the GI50 (HCT-15) was 38.7 µM and the GI50 (A549) was 58.1 µM (inactive). For the same molecule, the GI50 (786-0) was 31.2 µM (inactive), the GI50 (Malme-3M) was 69.5 µM (inactive) and the GI50 (OVCAR-3) was 34.8 µM (inactive). For the same molecule, the GI50 (SK-OV-3) was > 100 µM (inactive), the GI50 (OVCAR-8) was 36.3 µM (inactive) and the GI50 (SF-295) was 36 µM (inactive). For the same molecule, the GI50 (HOP-92) was 30.4 µM (inactive), the GI50 (XF498) was 32.7 µM (inactive) and the GI50 (KM-20L2) was 39.8 µM (inactive). For the same molecule, the GI50 (SF-268) was 36.1 µM (inactive), the GI50 (SK-MEL-28) was > 100 µM (inactive) and the GI50 (NCI-H226) was 24.8 µM (inactive). For the same molecule, the GI50 (SK-MEL-2) was 48.5 µM (inactive), the GI50 (NCI-H460) was 54.8 µM (inactive) and the GI50 (RXF 631) was 37 µM (inactive). For the same molecule, the GI50 (HL-60) was 28.4 µM (inactive), the GI50 (UACC-257) was 33.5 µM (inactive) and the GI50 (HCC 2998) was 82.4 µM (inactive). For the same molecule, the GI50 (ACHN) was 66.1 µM (inactive), the GI50 (DMS-114) was 22.7 µM (inactive) and the GI50 (SNB-19) was 46.6 µM (inactive). For the same molecule, the GI50 (RPMI-8226) was 18 µM (inactive), the GI50 (LOX IMVI) was 32.7 µM (inactive) and the GI50 (CAKI-1) was 44.7 µM (inactive). For the same molecule, the GI50 (K562) was 23.3 µM (inactive), the GI50 (KM12) was 43 µM (inactive) and the GI50 (OVCAR-4) was 31 µM (inactive). For the same molecule, the GI50 (U-251) was 67.3 µM (inactive), the GI50 (DMS-273) was 33.7 µM (inactive) and the GI50 (HOP-18) was 29.6 µM (inactive). The GI50 (DLD-1) was 52.5 µM (inactive), the GI50 (HOP-62) was 46.7 µM (inactive) and the GI50 (RXF 393) was 29.5 µM (inactive). For the same molecule, the GI50 (UO-31) was 44.5 µM (inactive), the GI50 (M14) was 38.8 µM (inactive) and the GI50 (NCI-H522) was 30.3 µM (inactive). The GI50 (LXFL 529) was 19.4 µM (inactive), the GI50 (OVCAR-5) was > 100 µM (inactive) and the GI50 (SNB-78) was 35.6 µM (inactive). The GI50 (TK-10) was 55.8 µM (inactive).
`O=c1[nH]cc(COCC(O)CO)c(=O)[nH]1` (centres undefined) was tested, and the GI50 (M19-MEL) was > 100 µM (inactive), the GI50 (COLO 205) was > 100 µM (inactive) and the GI50 (SN12C) was > 100 µM (inactive). For the same molecule, the GI50 (NCI-H23) was > 100 µM (inactive), the GI50 (SK-MEL-5) was > 100 µM (inactive) and the GI50 (HT-29) was > 100 µM (inactive). For the same molecule, the GI50 (SF-539) was > 100 µM (inactive), the GI50 (SNB-75) was > 100 µM (inactive) and the GI50 (SW-620) was > 100 µM (inactive). For the same molecule, the GI50 (MOLT-4) was > 100 µM (inactive), the GI50 (CCRF-CEM) was > 100 µM (inactive) and the GI50 (EKVX) was > 100 µM (inactive). The GI50 (HCT-15) was over 100 µM, the GI50 (A549) was > 100 µM (inactive) and the GI50 (786-0) was > 100 µM (inactive). For the same molecule, the GI50 (Malme-3M) was > 100 µM (inactive), the GI50 (OVCAR-3) was > 100 µM (inactive) and the GI50 (SK-OV-3) was > 100 µM (inactive). For the same molecule, the GI50 (OVCAR-8) was > 100 µM (inactive), the GI50 (SF-295) was > 100 µM (inactive) and the GI50 (A498) was > 100 µM (inactive). The GI50 (HOP-92) was > 100 µM (inactive), the GI50 (XF498) was > 100 µM (inactive) and the GI50 (KM-20L2) was > 100 µM (inactive). The GI50 (SF-268) was > 100 µM (inactive), the GI50 (SK-MEL-28) was > 100 µM (inactive) and the GI50 (NCI-H226) was > 100 µM (inactive). The GI50 (SK-MEL-2) was > 100 µM (inactive), the GI50 (NCI-H460) was > 100 µM (inactive) and the GI50 (RXF 631) was > 100 µM (inactive). The GI50 (HL-60) was > 100 µM (inactive), the GI50 (UACC-257) was > 100 µM (inactive) and the GI50 (ACHN) was > 100 µM (inactive). For the same molecule, the GI50 (DMS-114) was > 100 µM (inactive), the GI50 (SNB-19) was > 100 µM (inactive) and the GI50 (RPMI-8226) was > 100 µM (inactive). The GI50 (LOX IMVI) was > 100 µM (inactive), the GI50 (CAKI-1) was > 100 µM (inactive) and the GI50 (K562) was > 100 µM (inactive). The GI50 (KM12) was > 100 µM (inactive), the GI50 (OVCAR-4) was > 100 µM (inactive) and the GI50 (IGROV-1) was > 100 µM (inactive). The GI50 (U-251) was > 100 µM (inactive), the GI50 (DMS-273) was > 100 µM (inactive) and the GI50 (HOP-18) was > 100 µM (inactive). The GI50 (UACC-62) was > 100 µM (inactive), the GI50 (DLD-1) was > 100 µM (inactive) and the GI50 (HOP-62) was > 100 µM (inactive). For the same molecule, the GI50 (RXF 393) was > 100 µM (inactive), the GI50 (UO-31) was > 100 µM (inactive) and the GI50 (M14) was > 100 µM (inactive). The GI50 (NCI-H522) was > 100 µM (inactive), the GI50 (LXFL 529) was > 100 µM (inactive) and the GI50 (HCT-116) was > 100 µM (inactive). The GI50 (OVCAR-5) was > 100 µM (inactive), the GI50 (SNB-78) was > 100 µM (inactive) and the GI50 (TK-10) was > 100 µM (inactive).
